Source: the CheMixHub viscosity set

Test: xn = mol fraction of the nth substance listed

Clc1ccccc1 + CCCCCC
viscosity [mPa·s], 101.33 kPa
Details | x2 = 0.0793 | x2 = 0.1624 | x2 = 0.2494 | x2 = 0.3407 | x2 = 0.4367 | x2 = 0.5377 | x2 = 0.644 | x2 = 0.7562 | x2 = 0.8747
303.15 K | 0.6623 | 0.6095 | 0.5578 | 0.5101 | 0.4658 | 0.4254 | 0.3927 | 0.3549 | 0.3227
313.15 K | 0.6011 | 0.5513 | 0.5124 | 0.4699 | 0.4288 | 0.3946 | 0.3647 | 0.3305 | 0.3021
323.15 K | 0.5314 | 0.4893 | 0.4543 | 0.4164 | 0.3835 | 0.3551 | 0.3268 | 0.2997 | 0.2745

CCCCCCCCCCCCCCCCCCCCCC + CCCCCCC
viscosity [mPa·s], 101.3 kPa
Details | x1 = 0.2 | x1 = 0.4 | x1 = 0.479 | x1 = 0.596 | x1 = 0.798
303.2 K | 0.9761 | – | – | – | –
313.2 K | 0.8502 | 1.621 | 2.137 | – | –
323.1 K | 0.7493 | 1.39 | 1.826 | 2.449 | 3.197

COC(C)(C)C + CCCCCCC
303.15 K, 101 kPa
Details | viscosity [mPa·s]
x1 = 0.1976 | 0.373
x1 = 0.2745 | 0.369
x1 = 0.3423 | 0.364
x1 = 0.4536 | 0.359
x1 = 0.5656 | 0.356
x1 = 0.6441 | 0.353
x1 = 0.7685 | 0.35
x1 = 0.8606 | 0.349

COC(C)(C)C + CCCCCCCC
viscosity [mPa·s], 101 kPa
Details | 293.15 K | 298.15 K | 303.15 K | 308.15 K
x1 = 0.0937 | 0.5238 | 0.5009 | 0.4686 | 0.4492
x1 = 0.1345 | – | – | 0.444 | –
x1 = 0.1875 | 0.5065 | 0.4844 | 0.454 | 0.4355
x1 = 0.2831 | – | – | 0.423 | –
x1 = 0.2942 | 0.4873 | 0.4666 | 0.4382 | 0.4201
x1 = 0.3682 | – | – | 0.417 | –
x1 = 0.412 | 0.4668 | 0.447 | 0.4207 | 0.4035
x1 = 0.4989 | – | – | 0.406 | –
x1 = 0.511 | 0.4502 | 0.4313 | 0.4067 | 0.3903
x1 = 0.5482 | – | – | 0.401 | –
x1 = 0.5952 | 0.4367 | 0.4189 | 0.3957 | 0.3793
x1 = 0.699 | 0.4201 | 0.4027 | 0.3811 | 0.3653
x1 = 0.791 | – | – | 0.388 | –
x1 = 0.7965 | 0.4039 | 0.3871 | – | 0.3518
x1 = 0.8407 | – | – | 0.381 | –
x1 = 0.9009 | 0.3867 | 0.3707 | 0.3523 | 0.3376
